In brackets after ≈: the same amount, converted by molar mass. Where two headings read alike, the source gives them in different places.
What was measured:
Assay in all cases: MIC, agar dilution test (Denley multipoint inoculator; Iso-sensitest agar)
Format in all cases: cell-based
[1] = tested on: Staphylococcus aureus 133; conditions: read-out: MIC values
Protocol: (§1) The minimum inhibitory concentrations (MIC) were determined by the series dilution method on Iso-Sensitest agar (Oxoid). For each test substance, a series of agar plates which contained concentrations of the active compound which decreased by a dilution factor of two each time was prepared. The agar plates were inoculated with a multipoint inoculator (Denley). Overnight cultures of the pathogens which had first been diluted so that each inoculation point contained about 10^4 colony-forming particles were used for the inoculation. The inoculated agar plates were incubated at 37° C. and the germ growth was read off after about 20 hours. The MIC value (μg/ml) indicates the lowest active compound concentration at which no germ growth was to be detected with the naked eye.
(§2) The MIC values of some of the compounds according to the invention are shown in comparison with ciprofloxacin in the following table.
(§3) MIC values (mg/l) determined by the agar dilution
(§4) test (Denley multipoint inoculator; Iso-sensitest agar)

[2] = tested on: Enterococcus faecalis 9790; conditions: read-out: MIC values
Protocol: as §1, §2, §3, §4

[3] = tested on: Proleus vulgaris 1017; conditions: 37° C., about 20 hours, about 10^4 colony-forming particles
Protocol: as §1, §2, §3, §4

[4] = tested on: Morganella morganii 932; conditions: 37° C., about 20 hours, about 10^4 colony-forming particles
Protocol: as §1, §2, §3, §4

[5] = tested on: Staphylococcus aureus FK 422; conditions: read-out: MIC values
Protocol: as §1, §2, §3, §4

[6] = tested on: Enterococcus faecalis 27101; conditions: read-out: MIC values
Protocol: as §1, §2, §3, §4

[7] = tested on: Escherichia coli Neumann; conditions: 37° C., about 20 hours, about 10^4 colony-forming particles
Protocol: as §1, §2, §3, §4

[8] = tested on: Proleus mirabilis 8223; conditions: 37° C., about 20 hours, about 10^4 colony-forming particles
Protocol: as §1, §2, §3, §4

[9] = tested on: Staphylococcus aureus 1756; conditions: read-out: MIC values
Protocol: as §1, §2, §3, §4

[10] = tested on: Providencia stuartei 12052; conditions: 37° C., about 20 hours, about 10^4 colony-forming particles
Protocol: as §1, §2, §3, §4

[11] = Staphylococcus aureus 133, 37° C., about 20 hours, about 10^4 colony-forming particles
[12] = Enterococcus faecalis 9790, 37° C., about 20 hours, about 10^4 colony-forming particles
[13] = FK422, Staphylococcus aureus FK 422, 37° C., about 20 hours, about 10^4 colony-forming particles
[14] = Enterococcus faecalis 27101, 37° C., about 20 hours, about 10^4 colony-forming particles
[15] = Staphylococcus aureus 1756, 37° C., about 20 hours, about 10^4 colony-forming particles

Row | MIC [1, 11] | MIC [2, 12] | MIC [3] | MIC [4] | MIC [5, 13] | MIC [6, 14] | MIC [7] | MIC [8] | MIC [9, 15] | MIC [10] | Compound | MIC ([1]; Staphylococcus aureus, 133, 20 h) | MIC ([2]; Enterococcus faecalis, 9790, 20 h) | MIC ([5]; Staphylococcus aureus, FK422, 20 h) | MIC ([6]; Enterococcus faecalis, 27101, 20 h) | MIC ([9]; Staphylococcus aureus, 1756, 20 h)
1 | ≤ 0.015 µg/mL | 0.06 µg/mL | ≤ 0.015 µg/mL | ≤ 0.015 µg/mL | ≤ 0.016 µg/mL | 0.06 µg/mL | ≤ 0.015 µg/mL | 0.5 µg/mL | ≤ 0.015 µg/mL | 0.5 µg/mL | CO[C@H]1CN(c2c(F)cc3c(=O)c(C(=O)O)cn(C4CC4)c3c2Cl)C[C@H]1N.O=C(O)C(F)(F)F (relative stereo) [Example 4, 7-(cis-3-amino-4-methoxy-1-pyrrolidinyl)-8-chloro-1-cyclopropyl-6-fluoro-1,4-dihydro-4-oxo-3-quinolinecarboxylic acid trifluoroacetate] | – | – | – | – | –
2 | 0.125 µg/mL (≈ 0.35 µM) | 0.5 µg/mL (≈ 1.4 µM) | 0.06 µg/mL (≈ 0.168 µM) | 0.06 µg/mL (≈ 0.168 µM) | 0.125 µg/mL (≈ 0.35 µM) | 0.5 µg/mL (≈ 1.4 µM) | 0.06 µg/mL (≈ 0.168 µM) | 4 µg/mL (≈ 11.2 µM) | 0.125 µg/mL (≈ 0.35 µM) | 32 µg/mL (≈ 89.5 µM) | O=C(O)c1cn(C2CC2)c2cc(N3CC4CCNC4C3)c(F)cc2c1=O (centres unmarked) [Example 16, 1-cyclopropyl-7-(2,7-diazabicyclo[3.3.0]oct-7-yl)-6-fluoro-1,4-dihydro-4-oxo-3-quinolinecarboxylic acid] | – | – | – | – | –
3 | 0.06 µg/mL (≈ 0.148 µM) | 0.25 µg/mL (≈ 0.617 µM) | 0.5 µg/mL (≈ 1.23 µM) | 0.5 µg/mL (≈ 1.23 µM) | 0.06 µg/mL (≈ 0.148 µM) | 0.25 µg/mL (≈ 0.617 µM) | 0.25 µg/mL (≈ 0.617 µM) | 8 µg/mL (≈ 19.7 µM) | 0.06 µg/mL (≈ 0.148 µM) | 32 µg/mL (≈ 78.9 µM) | CN1CCOC2CN(c3c(F)cc4c(=O)c(C(=O)O)cn(C5CC5)c4c3F)CC21 (centres unmarked) [Example 9, 1-cyclopropyl-6,8-difluoro-1,4-dihydro-7-(5-methyl-2-oxa-5,8-diazabicyclo[4.3.0]non-8-yl)-4-oxo-3-quinolinecarboxylic acid] | – | – | – | – | –
4 | 0.125 µg/mL (≈ 0.321 µM) | 0.5 µg/mL (≈ 1.28 µM) | 0.06 µg/mL (≈ 0.154 µM) | 0.06 µg/mL (≈ 0.154 µM) | 0.125 µg/mL (≈ 0.321 µM) | 0.25 µg/mL (≈ 0.642 µM) | 0.03 µg/mL (≈ 0.077 µM) | 1 µg/mL (≈ 2.57 µM) | 0.125 µg/mL (≈ 0.321 µM) | 4 µg/mL (≈ 10.3 µM) | CN1CCC2CN(c3c(F)cc4c(=O)c(C(=O)O)cn(C5CC5)c4c3F)CC21 (centres unmarked) [Example 18, 1-cyclopropyl-6,8-difluoro-1,4-dihydro-7-(2-methyl-2,7-diazabicyclo[3.3.0]oct-7-yl)-4-oxo-3-quinolinecarboxylic acid] | – | – | – | – | –

Second part, the compound before the results:

Row | Compound | MIC [1, 11] | MIC [2, 12] | MIC [3] | MIC [4] | MIC [5, 13] | MIC [6, 14] | MIC [7] | MIC [8] | MIC [9, 15] | MIC [10] | MIC ([1]; Staphylococcus aureus, 133, 20 h) | MIC ([2]; Enterococcus faecalis, 9790, 20 h) | MIC ([5]; Staphylococcus aureus, FK422, 20 h) | MIC ([6]; Enterococcus faecalis, 27101, 20 h) | MIC ([9]; Staphylococcus aureus, 1756, 20 h)
5 | CO[C@H]1CN(c2cc3c(cc2F)c(=O)c(C(=O)O)cn3C2CC2)C[C@H]1N.Cl (relative stereo) [Example 5, 7-(cis-3-Amino-4-methoxy-1-pyrrolidinyl)-1-cyclopropyl-6-fluoro-1,4-dihydro-4-oxo-3-quinolinecarboxylic acid hydrochloride] | 0.125 µg/mL | 0.25 µg/mL | 0.03 µg/mL | ≤ 0.015 µg/mL | 0.125 µg/mL | 0.25 µg/mL | ≤ 0.015 µg/mL | 2 µg/mL | 0.125 µg/mL | 4 µg/mL | – | – | – | – | –
6 | O=C(O)c1cn(C2CC2)c2cc(N3CCNCC3)c(F)cc2c1=O [Ciprofloxacin, ciprofloxacin, reference compound] | – | – | ≤ 0.015 µg/mL | ≤ 0.015 µg/mL | – | – | ≤ 0.015 µg/mL | 1 µg/mL (≈ 3.02 µM) | – | 4 µg/mL (≈ 12.1 µM) | 0.25 µg/mL (≈ 0.754 µM) | 0.25 µg/mL (≈ 0.754 µM) | 0.25 µg/mL (≈ 0.754 µM) | 0.05 µg/mL (≈ 0.151 µM) | 0.25 µg/mL (≈ 0.754 µM)
7 | CO[C@@H]1CN(c2cc3c(cc2F)c(=O)c(C(=O)O)cn3C2CC2)C[C@H]1N.Cl (relative stereo) [Example 2, 7-(trans-3-Amino-4-methoxy-1-pyrrolidinyl)-1-cyclopropyl-6-fluoro-4-oxo-3-quinolinecarboxylic acid hydrochloride] | 0.125 µg/mL | 0.5 µg/mL | 0.125 µg/mL | 0.03 µg/mL | 0.125 µg/mL | – | ≤ 0.015 µg/mL | 4 µg/mL | 0.125 µg/mL | 4 µg/mL | – | – | – | – | –
8 | O=C(O)c1cn(C2CC2)c2c(F)c(N3CC4NCCOC4C3)c(F)cc2c1=O (centres unmarked) [Example 8, 1-cyclopropyl-6,8-difluoro-1,4-dihydro-7-(2-oxa-5,8-diazabicyclo[4.3.0]non-8-yl)-4-oxo-3-quinolinecarboxylic acid] | 0.03 µg/mL (≈ 0.0767 µM) | 0.125 µg/mL (≈ 0.319 µM) | 0.06 µg/mL (≈ 0.153 µM) | 0.06 µg/mL (≈ 0.153 µM) | 0.03 µg/mL (≈ 0.0767 µM) | 0.125 µg/mL (≈ 0.319 µM) | ≤ 0.015 µg/mL | 2 µg/mL (≈ 5.11 µM) | 0.03 µg/mL (≈ 0.0767 µM) | 4 µg/mL (≈ 10.2 µM) | – | – | – | – | –
9 | CO[C@@H]1CN(c2c(F)cc3c(=O)c(C(=O)O)cn(C4CC4)c3c2F)C[C@H]1N.Cl (relative stereo) [Example 1, 7-(trans-3-amino-4-methoxy-1-pyrrolidinyl)-1-cyclopropyl-6,8-difluoro-4-oxo-3-quinolinecarboxylic acid hydrochloride] | 0.06 µg/mL | 0.125 µg/mL | ≤ 0.015 µg/mL | ≤ 0.015 µg/mL | 0.06 µg/mL | 0.125 µg/mL | ≤ 0.015 µg/mL | 1 µg/mL | 0.06 µg/mL | 1 µg/mL | – | – | – | – | –
10 | CN1CCC2CN(c3cc4c(cc3F)c(=O)c(C(=O)O)cn4C3CC3)CC21 (centres unmarked) [Example 17, 1-cyclopropyl-6-fluoro-1,4-dihydro-7-(2-methyl-2,7-diazabicyclo[3.3.0]oct-7-yl)-4-oxo-3-quinolinecarboxylic acid] | 0.5 µg/mL (≈ 1.35 µM) | 2 µg/mL (≈ 5.38 µM) | 0.5 µg/mL (≈ 1.35 µM) | 0.5 µg/mL (≈ 1.35 µM) | 0.5 µg/mL (≈ 1.35 µM) | 1 µg/mL (≈ 2.69 µM) | 0.125 µg/mL (≈ 0.337 µM) | 8 µg/mL (≈ 21.5 µM) | 0.5 µg/mL (≈ 1.35 µM) | 8 µg/mL (≈ 21.5 µM) | – | – | – | – | –
11 | CN1CCCC2CN(c3c(F)cc4c(=O)c(C(=O)O)cn(C5CC5)c4c3F)CC21 (centres unmarked) [Example 13, 1-cyclopropyl-6,8-difluoro-1,4-dihydro-7-(2-methyl-2,8-diazabicyclo[4.3.0]non-8-yl)-4-oxo-3-quinolinecarboxylic acid] | 0.06 µg/mL (≈ 0.149 µM) | 0.25 µg/mL (≈ 0.62 µM) | 0.03 µg/mL (≈ 0.0744 µM) | 0.125 µg/mL (≈ 0.31 µM) | 0.06 µg/mL (≈ 0.149 µM) | 0.125 µg/mL (≈ 0.31 µM) | 0.06 µg/mL (≈ 0.149 µM) | 1 µg/mL (≈ 2.48 µM) | 0.06 µg/mL (≈ 0.149 µM) | 2 µg/mL (≈ 4.96 µM) | – | – | – | – | –
12 | CO[C@H]1CN(c2c(F)cc3c(=O)c(C(=O)O)cn(C4CC4)c3c2F)C[C@H]1N.Cl (relative stereo) [Example 3, 7-(cis-3-Amino-4-methoxy-1-pyrrolidinyl)-1-cyclopropyl-6,8-difluoro-4-oxo-3-quinolinecarboxylic acid hydrochloride] | 0.03 µg/mL | 0.25 µg/mL | ≤ 0.015 µg/mL | 0.03 µg/mL | 0.06 µg/mL | 0.125 µg/mL | ≤ 0.015 µg/mL | 1 µg/mL | 0.06 µg/mL | 2 µg/mL | – | – | – | – | –
13 | O=C(O)c1cn(C2CC2)c2c(F)c(N3CC4CCCNC4C3)c(F)cc2c1=O (centres unmarked) [Example 15, 1-cyclopropyl-7-(2,8-diazabicyclo[4.3.0]non-8-yl)-6,8-difluoro-1,4-dihydro-4-oxo-3-quinolinecarboxylic acid] | 0.03 µg/mL (≈ 0.077 µM) | – | 0.03 µg/mL (≈ 0.077 µM) | 0.03 µg/mL (≈ 0.077 µM) | 0.03 µg/mL (≈ 0.077 µM) | 0.03 µg/mL (≈ 0.077 µM) | ≤ 0.015 µg/mL | 0.5 µg/mL (≈ 1.28 µM) | 0.03 µg/mL (≈ 0.077 µM) | 1 µg/mL (≈ 2.57 µM) | – | – | – | – | –
